Consider one compound from US12409206B2, “Use of cyclosporine analogues for treating fibrosis” (Hepion Pharmaceuticals, Inc., priority 2020, dated 2025).

Series [1] concerns hepatitis C. The settings on record: preclinical studies; cited from earlier work.
The test system of series [2] is Human adult dermal fibroblasts. Nature of the series: Cell viability analysis, dermal fibroblast culture. It is filed as cell-based. The note with it: end of 4 days of treatment (so in the source).
Series [3] has as its system Human cardiac fibroblasts. The series can be described thus: Cell viability analysis, cardiac fibroblast culture. Type of series: cell-based. The settings on record: end of treatment (6 days). As for the experimental part: (§1) Human cardiac fibroblasts (Lonza Bioscience, Cat. #CC-2903) were cultured in 96-well plates. Treatments were applied in triplicate wells (applied 100 ul treatments per well) for 6 days. Cells were near confluence at the start of treatments. […] Spent culture medium collected at the end of treatments was assayed for procollagen and fibronectin by enzyme-linked immunosorbent assays (ELISA) (Procollagen ELISA antibody pair (ab216064) and fibronectin ELISA antibody pair (ab222262) from Abcam). Procollagen and fibronectin were not detected in medium not applied to cells. Procollagen and fibronectin levels in the medium are represented by means±SD (bars) from 3 replicate wells (open circles).

The subject of series [4] is HIV. The note with it: preclinical studies; cited from earlier work.
For series [5], the system named is hepatitis B. The note with it: preclinical studies; cited from earlier work.
The subject of series [6] is Human cardiac fibroblasts. Nature of the series: Procollagen and fibronectin ELISA of spent medium, cardiac fibroblast culture. Type of series: cell-based. The note with it: 6 days, both in the absence or presence of 0.4 ng/ml TGFβ. As to the method:
as §1

Series [7] has as its system experimental models of NASH. The note with it: cited from earlier work.
Series [8] deals with mouse unilateral ureteral obstruction (UUO) model of kidney fibrosis. The series can be described thus: Mouse unilateral ureteral obstruction (UUO) model of kidney fibrosis, Sirius red. Type of series: in vivo, C57BL/6 mice. The settings on record: 50 mg/kg/day daily oral gavage for 13 days; vs vehicle; per-section and per-animal; one-way ANOVA with Tukey. As for the experimental part: This example describes a study conducted in the mouse unilateral ureteral obstruction (UUO) model of kidney fibrosis. Seven-week-old female C57BL/6 mice were used in this study (n=8 mice per group). Sham group mice received no UUO. The remaining mice underwent complete surgical ligation of the left ureter. Vehicle and CRV431 at 50 mg/kg/day were administered by daily oral gavage for 13 days starting on the day of surgery. Mice were sacrificed on Day 14, and left kidneys were processed histologically and stained for fibrotic collagen with Sirius red. The percentage of each histological section with Sirius red staining was measured morphometrically in 5 sections from each kidney. Results are shown in FIG. 7A (showing Sirius red in individual tissue sections) and 7B (showing Sirius red in individual mice (5 tissue sections per mouse)).

Series [9] concerns human precision cut liver slices (PCLS). The series can be described thus: PCLS biomarker secretion (ELISA). It is filed as cell-based. As for the experimental part:
PCLS were obtained from 5 human donors who underwent resection of liver cancer. Replicate slices were collected from healthy margins of the resections and cultured for 4 or 6 days depending on the experimental protocol. In the Nonstimulation Protocol slices were cultured for 6 days and treated for the entire period with DMSO vehicle or 5 μM CRV431. In the Stimulation Protocol slices were rested for 1 day and then administered the cytokines, TGFβ and PDGF-BB, for 3 days to stimulate inflammation and fibrosis. DMSO vehicle, CRV431 (1 and 5 μM), Alk5i (10 μM), obeticholic acid (5 μM), elafibranor (5 μM), resmetirom ([…]), and Aramchol (5 μM) were administered individually as drug treatments in the Stimulation Protocol concurrent with TGFβ+PDGF-BB. Culture medium treatments were replaced daily.
Four types of evaluations were conducted on the PCLS: (a) secretion of inflammation and fibrosis biomarkers into the culture medium, (b) histological staining and quantitation of Sirius red as a measure of tissue fibrosis, (c) gene expression of inflammation and fibrosis biomarkers by RT-PCR, and (d) RNA sequencing (RNA-Seq) of the complete transcriptome. Each of the four types of evaluation is described below: • (a) Biomarker secretion. Spent culture medium was collected daily from duplicate slices for each treatment. ELISAs were used to quantify secretion of monocyte chemoattractant protein (MCP-1), interleukin-6 (IL-6), tissue inhibitor of metalloproteinase-1 (TIMP1), hyaluronic acid, fibronectin, and collagen 1α1. For each donor the mean level of biomarker secretion in each treatment group was expressed as a percentage change relative to DMSO vehicle, the percentages averaged for all donors, and finally the mean daily percentage change calculated from all days of evaluation. […] Sirius red was quantified morphometrically in the histological sections as the percentage area with Sirius red staining in 10 sections from each treatment. In the Nonstimulation Protocol the quantity of Sirius red staining was expressed relative to the vehicle group. In the Stimulation Protocol the quantity of Sirius red staining was expressed relative to nonstimulated PCLS (0%) and TGFβ+PDGF-BB-stimulated+vehicle PCLS (100%). […] RNA was isolated from duplicate liver slices per treatment at the end of the experiments and evaluated by RT-PCR for 5 markers of inflammation and fibrosis: MCP-1, IL-6, TIMP1, αSMA, and collagen 1α1. β actin was used as a reference gene to calculate relative levels of each target gene RNA. […] RNA sequencing of the complete transcriptome (30 million reads per sample) was conducted on vehicle and 5 μM CRV431 treatment groups from 3 donors both from the Nonstimulation and Stimulation Protocols. […]

For series [10] the test system is unchanged. The series can be described thus: PCLS Sirius red tissue fibrosis, Stimulation Protocol (TGFβ+PDGF-BB). Type of series: cell-based. The settings on record: compared with other NASH drug candidates. As to the method:
PCLS were obtained from 5 human donors who underwent resection of liver cancer. Replicate slices were collected from healthy margins of the resections and cultured for 4 or 6 days depending on the experimental protocol. In the Nonstimulation Protocol slices were cultured for 6 days and treated for the entire period with DMSO vehicle or 5 μM CRV431. In the Stimulation Protocol slices were rested for 1 day and then administered the cytokines, TGFβ and PDGF-BB, for 3 days to stimulate inflammation and fibrosis. […]
Four types of evaluations were conducted on the PCLS: (a) secretion of inflammation and fibrosis biomarkers into the culture medium, (b) histological staining and quantitation of Sirius red as a measure of tissue fibrosis, (c) gene expression of inflammation and fibrosis biomarkers by RT-PCR, and (d) RNA sequencing (RNA-Seq) of the complete transcriptome. […] ELISAs were used to quantify secretion of monocyte chemoattractant protein (MCP-1), interleukin-6 (IL-6), tissue inhibitor of metalloproteinase-1 (TIMP1), hyaluronic acid, fibronectin, and collagen 1α1. For each donor the mean level of biomarker secretion in each treatment group was expressed as a percentage change relative to DMSO vehicle, the percentages averaged for all donors, and finally the mean daily percentage change calculated from all days of evaluation. […]

Series [11] concerns human precision cut IPF lung slices. Nature of the series: Gene expression (RT-PCR) in precision cut IPF lung slices in culture. The settings on record: CRV431 applied at 5 μM; Day 6 of culture after 4 days of treatment; β actin reference. Type of series: cell-based. As for the experimental part:
This example describes a study conducted with precision cut lung slices. Precision cut slices from explanted lung tissue from a patient with biopsy-confirmed, idiopathic pulmonary fibrosis (IPF) were cultured for 6 days. Treatments were applied to 6 replicate slices per treatment on Day 2 of culture and replaced daily on Days 3, 4, and 5 of culture.
For generating the results of gene expression shown in FIG. 6B, RNA was isolated from 6 pooled lung slices per treatment on Day 6 of culture following 4 days of drug or vehicle treatment and evaluated by reverse transcription-polymerase chain reaction (RT-PCR) for 6 markers of inflammation and fibrosis: MCP-1, IL-6, TGFβ TIMP1, collagen 1α1, and α-smooth muscle actin (αSMA). β actin was used as a reference gene to calculate relative levels of each target gene RNA.

`CC[C@@H]1NC(=O)[C@H]([C@H](O)[C@H](C)CCCCCCNC(C)=O)N(C)C(=O)[C@H](C(C)C)N(C)C(=O)[C@H](CC(C)C)N(C)C(=O)[C@H](CC(C)C)N(C)C(=O)[C@@H](C)NC(=O)[C@H](C)NC(=O)[C@H](CC(C)C)N(C)C(=O)[C@H](C(C)C)NC(=O)[C@H](CC(C)C)N(C)C(=O)[C@@H](C)N(C)C1=O` [CRV431]: the anti-viral activity entry in [1], in series [4] and in series [5] was “shows anti-viral activity” each time. Also, the cell viability entry in series [2] and in series [3] was “none of the CRV431 treatments affected cell viability” each time. The “abundance of fibronectin in the medium” value in series [6] was “dose-dependently decreased”. In [6], the “abundance of procollagen in the medium” value was “dose-dependently decreased”. Besides, the “hepatocellular carcinoma tumor burden” value in series [7] is “can reduce”. For the same compound, in series [7], the “liver fibrosis arising from non-alcoholic steatohepatitis” value is given as “can reduce”. Also, the “Sirius red staining (fibrotic collagen) of left kidney” value in series [8] was “statistically significant decrease”. Moreover, the “mean daily secretion of all markers” value in series [9] (CRV431 applied at 5 μM, markers MCP-1, IL-6, TIMP1, hyaluronic acid, fibronectin, collagen 1α1) is given as “decreased”. In [9] (ELISA), the “secretion of collagen1α1, fibronectin, hyaluronic acid, IL-6, and MCP-1” value is on record as “reduced secretion”. For the same compound, the “preventing TGFβ+PDGF-BB-induced tissue fibrosis” value in series [10] is “most effective of five NASH drug candidates”. Moreover, in series [11], the “gene expression of all markers (MCP-1, IL-6, TGFβ, TIMP1, collagen 1α1, αSMA)” value was “decreased”.
